# Legend:
# Type in all cases: in vivo
# [1] = test system: blackgrass (Alopecurus myosuroides); experiment: Test A1 preemergence, blackgrass
# From the text: (§1) Seeds of plant species selected from, blackgrass (Alopecurus myosuroides), corn (Zea mays), Foxtail, Giant (giant foxtail, Setaria faberi), goosegrass (Eleusine indica), kochia (Bassia scoparia), Oat, Wild (wild oat, Avena fatua), Pigweed, Palmer (palmer amaranth, palmer pigweed, Amaranthus palmeri), ragweed (common ragweed, Ambrosia artemisiifolia), Ryegrass, Italian (Italian ryegrass, Lolium multiflorum), soybean (Glycine max), and wheat (Triticum aestivum) were planted into a blend of loam soil and sand and treated preemergence with a directed soil spray using test chemicals formulated in a non-phytotoxic solvent mixture which included a surfactant. At the same time, plants selected from these crop and weed species and also galium (catchweed bedstraw, Galium aparine) and horseweed (Erigeron canadensis) were planted in pots containing the same blend of loam soil and sand and treated with postemergence applications of test chemicals formulated in the same manner. Plants ranged in height from 2 to 10 cm and were in the one- to two-leaf stage for the postemergence treatment. […] A dash (-) response means no test result.
# corn (Zea mays) [2] = experiment: Test A1 preemergence, corn
# From the text: as §1
# [3] = test system: Foxtail, Giant (giant foxtail, Setaria faberi); experiment: Test A1 preemergence, Foxtail, Giant
# From the text: as §1
# [4] = test system: goosegrass (Eleusine indica); experiment: Test A1 preemergence, goosegrass
# From the text: as §1
# kochia (Bassia scoparia) [5] = experiment: Test A1 preemergence, kochia
# From the text: as §1
# [6] = test system: Oat, Wild (wild oat, Avena fatua); experiment: Test A1 preemergence, Oat, Wild
# From the text: as §1
# [7] = test system: Pigweed, Palmer (palmer amaranth, palmer pigweed, Amaranthus palmeri); experiment: Test A1 preemergence, Pigweed, Palmer
# From the text: as §1
# [8] = test system: ragweed (common ragweed, Ambrosia artemisiifolia); experiment: Test A1 preemergence, ragweed
# From the text: as §1
# [9] = test system: Ryegrass, Italian (Italian ryegrass, Lolium multiflorum); experiment: Test A1 preemergence, Ryegrass, Italian
# From the text: as §1
# soybean (Glycine max) [10] = experiment: Test A1 preemergence, soybean
# From the text: as §1
# [11] = test system: wheat (Triticum aestivum); experiment: Test A1 preemergence, wheat
# From the text: as §1
# [12] = test system: blackgrass (Alopecurus myosuroides); experiment: Test A1 postemergence, blackgrass; conditions: Postemergence, 0 to 100 scale (0 no effect, 100 complete control)
# From the text: as §1
# corn (Zea mays) [13] = experiment: Test A1 postemergence, corn; conditions: Postemergence
# From the text: as §1
# [14] = test system: Foxtail, Giant (giant foxtail, Setaria faberi); experiment: Test A1 postemergence, Foxtail, Giant; conditions: Postemergence
# From the text: as §1
# [15] = test system: goosegrass (Eleusine indica); experiment: Test A1 postemergence, goosegrass; conditions: Postemergence
# From the text: as §1
# kochia (Bassia scoparia) [16] = experiment: Test A1 postemergence, kochia; conditions: Postemergence
# From the text: as §1
# [17] = test system: Oat, Wild (wild oat, Avena fatua); experiment: Test A1 postemergence, Oat, Wild; conditions: Postemergence
# From the text: as §1
# [18] = test system: Pigweed, Palmer (palmer amaranth, palmer pigweed, Amaranthus palmeri); experiment: Test A1 postemergence, Pigweed, Palmer; conditions: Postemergence
# From the text: as §1
# [19] = test system: ragweed (common ragweed, Ambrosia artemisiifolia); experiment: Test A1 postemergence, ragweed; conditions: Postemergence
# From the text: as §1
# [20] = test system: Ryegrass, Italian (Italian ryegrass, Lolium multiflorum); experiment: Test A1 postemergence, Ryegrass, Italian; conditions: Postemergence
# From the text: as §1
# soybean (Glycine max) [21] = experiment: Test A1 postemergence, soybean; conditions: Postemergence
# From the text: as §1
# [22] = test system: wheat (Triticum aestivum); experiment: Test A1 postemergence, wheat; conditions: Postemergence
# From the text: as §1
# [23] = test system: galium (catchweed bedstraw, Galium aparine); experiment: Test A1 postemergence, galium; conditions: Postemergence
# From the text: as §1
# [24] = test system: horseweed (Erigeron canadensis); experiment: Test A1 postemergence, horseweed; conditions: Postemergence
# From the text: as §1
# [25] = test system: barnyardgrass (Echinochloa crus-galli); experiment: Test B1 flooded paddy test, barnyardgrass; conditions: 250 g ai/ha, Flood, applied to paddy water, 2-leaf stage, visually evaluated after 10 to 14 days
# From the text: (§2) A dash (-) response means no test result.
# [26] = test system: ducksalad (Heteranthera limosa); experiment: Test B1 flooded paddy test, ducksalad; conditions: 250 g ai/ha, Flood, applied to paddy water, 2-leaf stage, visually evaluated after 10 to 14 days
# From the text: as §2
# rice (Oryza sativa) = experiment: Test B1 flooded paddy test, rice; conditions: 250 g ai/ha, Flood, applied to paddy water, 2-leaf stage, visually evaluated after 10 to 14 days
# From the text: as §2
# [27] = 31 g ai/ha, 0 to 100 scale (0 no effect, 100 complete control)
# [28] = 125 g ai/ha, 0 to 100 scale, 0 no effect, 100 complete control
# [29] = 31 g ai/ha, 0 to 100 scale (0 no effect, 100 complete control), 10 days
compound,measurement,setting,value
COC1CCCN(C(=O)c2cc(NS(=O)(=O)C(F)(F)F)c(Cl)c(F)c2C)C1 (stereo not drawn) [Compound 334],"Plant response rating, Blackgrass",[1]; [27],10
same,"Plant response rating, Blackgrass",[1]; [28],10
same,"Plant response rating, Corn",corn (Zea mays) [2]; [27],0
same,"Plant response rating, Corn",corn (Zea mays) [2]; [28],0
same,"Plant response rating, Foxtail, Giant",[3]; [27],40
same,"Plant response rating, Foxtail, Giant",[3]; [28],70
same,"Plant response rating, Goosegrass",[4]; [27],70
same,"Plant response rating, Goosegrass",[4]; [28],90
same,"Plant response rating, Kochia",kochia (Bassia scoparia) [5]; [27],0
same,"Plant response rating, Kochia",kochia (Bassia scoparia) [5]; [28],20
same,"Plant response rating, Oat, Wild",[6]; [27],10
same,"Plant response rating, Oat, Wild",[6]; [28],20
same,"Plant response rating, Pigweed, Palmer",[7]; [27],20
same,"Plant response rating, Pigweed, Palmer",[7]; [28],70
same,"Plant response rating, Ragweed",[8]; [27],0
same,"Plant response rating, Ragweed",[8]; [28],50
same,"Plant response rating, Ryegrass, Italian",[9]; [27],30
same,"Plant response rating, Ryegrass, Italian",[9]; [28],50
same,"Plant response rating, Soybean",soybean (Glycine max) [10]; [27],0
same,"Plant response rating, Soybean",soybean (Glycine max) [10]; [28],30
same,"Plant response rating, Wheat",[11]; [27],0
same,"Plant response rating, Wheat",[11]; [28],0
same,"Plant response rating, Blackgrass","[12]; 31 g ai/ha, 10 days",0
same,"Plant response rating, Blackgrass",[12]; 125 g ai/ha,0
same,"Plant response rating, Corn",corn (Zea mays) [13]; [29],0
same,"Plant response rating, Corn","corn (Zea mays) [13]; 125 g ai/ha, 0 to 100 scale",0
same,"Plant response rating, Foxtail, Giant",[14]; [29],0
same,"Plant response rating, Foxtail, Giant","[14]; 125 g ai/ha, 0 to 100 scale",0
same,"Plant response rating, Goosegrass",[15]; [29],0
same,"Plant response rating, Goosegrass","[15]; 125 g ai/ha, 0 to 100 scale",0
same,"Plant response rating, Kochia",kochia (Bassia scoparia) [16]; [29],10
same,"Plant response rating, Kochia","kochia (Bassia scoparia) [16]; 125 g ai/ha, 0 to 100 scale",40
same,"Plant response rating, Oat, Wild",[17]; [29],0
same,"Plant response rating, Oat, Wild","[17]; 125 g ai/ha, 0 to 100 scale",0
same,"Plant response rating, Pigweed, Palmer",[18]; [29],10
same,"Plant response rating, Pigweed, Palmer","[18]; 125 g ai/ha, 0 to 100 scale",50
same,"Plant response rating, Ragweed",[19]; [29],0
same,"Plant response rating, Ragweed","[19]; 125 g ai/ha, 0 to 100 scale",50
same,"Plant response rating, Ryegrass, Italian",[20]; [29],0
same,"Plant response rating, Ryegrass, Italian","[20]; 125 g ai/ha, 0 to 100 scale",0
same,"Plant response rating, Soybean",soybean (Glycine max) [21]; [29],20
same,"Plant response rating, Soybean","soybean (Glycine max) [21]; 125 g ai/ha, 0 to 100 scale",40
same,"Plant response rating, Wheat",[22]; [29],0
same,"Plant response rating, Wheat","[22]; 125 g ai/ha, 0 to 100 scale",0
same,"Plant response rating, Galium",[23]; [29],60
same,"Plant response rating, Galium","[23]; 125 g ai/ha, 0 to 100 scale",60
same,"Plant response rating, Horseweed",[24]; [29],0
same,"Plant response rating, Horseweed","[24]; 125 g ai/ha, 0 to 100 scale",30
same,"Plant response rating, Barnyardgrass (0 to 100 scale, 0 is no effect, 100 is complete control)",[25],15
same,"Plant response rating, Ducksalad (0 to 100 scale, 0 is no effect, 100 is complete control)",[26],60
same,"Plant response rating, Rice (0 to 100 scale, 0 is no effect, 100 is complete control)",rice (Oryza sativa),10

# Source: patent publication US20230278972A1, “SUBSTITUTED HALOALKYL SULFONANILIDE HERBICIDES” (FMC Corporation, priority 2020, published 2023)
